Measurements from US8299296B2, “Spiro compounds and pharmaceutical use thereof” (Japan Tobacco Inc., priority 2007, dated 2012).

biological target: T1, human GPR40 (Homo sapiens, UniProt O14842); assay: Ca2+ mobilization (FLIPR) in a stable GPR40-expressing cell; GPR40 agonist activity; type: cell-based; settings: compound concentration corresponding to 50% PosiC, 100% = intracellular calcium level induced by 80 μM palmitic acid
T1 construct: expressed in transfected cells
Experimental: Evaluation of effect of test compounds on Ca^2+ mobilization by using a stable GPR40-expressing cell A stable human GPR40-expressing HEK293 cell was used. A cell suspension was prepared such that the above-mentioned cells were present at 6×10^5 cells/mL in a cell culture medium (D-MEM (Nikken Bio Medical Laboratory) supplemented with 10% (v/v) fetal bovine serum (Biowest) and 1% (v/v) penicillin-streptomycin solution (Invitrogen)). The cell suspension was plated in a 384-well plate (poly-D-lysine coated plate; Falcon) in a volume of 25 μl/well, and the plate was incubated at 37° C. in an atmosphere of 5% CO2 overnight. Each test compound was added to the cell at each concentration as below, and then the change in intracellular calcium level was measured by FLIPR^TETRA (Molecular Devices). Before the FLIPR assay, the following preparative solutions were prepared. First, an assay buffer was prepared for use in the preparation of a fluorescent dye solution and a diluent buffer solution. The assay buffer was prepared by adding 1M HEPES solution (Invitrogen) to Hanks' Balanced Salt Solution (Invitrogen), followed by adjusting the pH to 7.4 with 1M NaOH (Nacalai Tesque). Next, the fluorescent dye solution and the diluent buffer solution were prepared. The fluorescent dye solution was prepared in accordance with the instruction manual attached to Fluo-4NW calcium assay kit (Invitrogen), followed by addition of bovine serum albumin (Sigma) to a final concentration of 0.1% (w/v). The diluent buffer solution was prepared by adding bovine serum albumin (Sigma) to the assay buffer to give a final concentration of 0.1% (w/v). After removing a medium supernatant from the cell culture plate incubated overnight, the fluorescent dye solution was added to the plate in a volume of 25 μl/well. The plate was incubated at 37° C. in an atmosphere of 5% CO2 for 90 minutes to promote the fluorescent dye uptake in the cell. Meanwhile, the test compounds (i.e., the compounds prepared in Examples) dissolved in dimethyl sulfoxide (DMSO; Nacalai Tesque) were diluted with the diluent buffer solution, to prepare each compound solution at each concentration. In addition, a palmitic acid solution was prepared as a positive control solution (hereinafter abbreviated as PosiC). A 40 μl aliquot of each sample solution prepared as above was added to each well of a 384-well polypropylene plate to prepare a compound plate. Finally, after the sufficient uptake of the fluorescent dye in the cell, the cell plate and the compound plate were set to FLIPR^TETRA. After the above pretreatment, the change in intracellular calcium level was measured by FLIPR^TETRA upon addition of 25 μl of each test compound solution at each concentration. The GPR40 agonist activity of each test compound at each concentration was determined as a relative activity level (% PosiC) with the intracellular calcium level induced by 80 μM palmitic acid (a GPR40 agonist) set to 100%. Next, each compound concentration corresponding to 50% PosiC was calculated based on the % PosiC value, to compare between agonist activities of the test compounds. In the tables, “++++” indicates 0.01 μM or more but less than 0.1 μM, “+++” indicates 0.1 μM or more but less than 1 μM, “++” indicates 1 μM or more but less than 10 μM, and “+” indicates 10 μM or more for 50% posiC value. In the tables, “N.T.” indicates “not tested”.

T1 sequence (O14842 whole entry): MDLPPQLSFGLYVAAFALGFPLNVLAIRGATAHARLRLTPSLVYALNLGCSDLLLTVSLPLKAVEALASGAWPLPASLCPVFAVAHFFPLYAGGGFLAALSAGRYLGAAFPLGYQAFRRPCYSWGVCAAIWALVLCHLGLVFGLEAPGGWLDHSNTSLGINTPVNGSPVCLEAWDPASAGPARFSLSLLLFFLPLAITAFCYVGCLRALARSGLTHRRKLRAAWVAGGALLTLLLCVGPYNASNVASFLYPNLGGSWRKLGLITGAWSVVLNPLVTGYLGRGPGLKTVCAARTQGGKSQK

| SMILES | EC50 [nM] |
| --- | --- |
| O=C(O)CCc1ccc(OCC2CCC3(CCCCCC3)C2)cc1 (racemic) [Example 21, 3-[4-(spiro[4.6]undec-2-ylmethoxy)-phenyl]-propionic acid] | ≥ 10000 |
| CC1(C)CCC2(CCCC(COc3ccc(CCC(=O)O)cc3)C2)CC1 (racemic) [Example 54, 3-[4-(9,9-dimethyl-spiro[5.5]undec-2-ylmethoxy)-phenyl]-propionic acid] | 1000 to 10000 |
| CC1(C)CCCCC12CCCC(COc1ccc(CCC(=O)O)cc1)C2 (racemic) [Example 56, 3-[4-(7,7-dimethyl-spiro[5.5]undec-2-ylmethoxy)-phenyl]-propionic acid] | 1000 to 10000 |
| CC#C[C@H](CC(=O)O)c1ccc(OCC2CCCC3(CCCCC3)C2)cc1 (mixture of isomers) [Example 58, (3R)-3-[4-(spiro[5.5]undec-2-ylmethoxy)-phenyl]-hex-4-ynoic acid] | 1000 to 10000 |
| O=C(O)CC(c1ccccc1)c1ccc(OCC2CCCC3(CCCCC3)C2)cc1 (racemic) [Example 60, 3-phenyl-3-[4-(spiro[5.5]undec-2-ylmethoxy)-phenyl]-propionic acid] | 1000 to 10000 |
| O=C(O)CCc1ccc(OC2CCCC3(CCCCC3)C2)cc1 (racemic) [Example 61, 3-[4-(spiro[5.5]undec-2-yloxy)-phenyl]-propionic acid] | ≥ 10000 |
| O=C(O)CCc1ccc(OCCC2CCCC3(CCCCC3)C2)cc1 (racemic) [Example 62, 3-[4-(2-spiro[5.5]undec-2-yl-ethoxy)-phenyl]-propionic acid] | ≥ 10000 |
| CNC(=O)C(CC(=O)O)c1ccc(OCC2CCCC3(CCCCC3)C2)cc1 (racemic) [Example 65, N-methyl-3-[4-(spiro[5.5]undec-2-ylmethoxy)-phenyl]-succinamic acid] | 1000 to 10000 |
| O=C1NC(=O)C(Cc2ccc(OCC3CCCC4(CCCCC4)C3)cc2)S1 (racemic) [Example 67, 5-[4-(spiro[5.5]undec-2-ylmethoxy)-benzyl]-thiazolidine-2,4-dione] | ≥ 10000 |
| CC#C[C@H](c1ccc(OCC2CCCC3(CCCCC3)C2)cc1)C1SC(=O)NC1=O (mixture of isomers) [Example 68, 5-{(1S)-1-[4-(spiro[5.5]undec-2-ylmethoxy)-phenyl]-but-2-ynyl}-thiazolidine-2,4-dione] | 1000 to 10000 |
| O=C(O)CC(CO)c1ccc(OCC2CCCC3(CCCCC3)C2)cc1 (racemic) [Example 69, 4-hydroxy-3-[4-(spiro[5.5]undec-2-ylmethoxy)-phenyl]-butyric acid] | 1000 to 10000 |
| COCC(CC(=O)O)c1ccc(OCC2CCCC3(CCCCC3)C2)cc1 (racemic) [Example 71, 4-methoxy-3-[4-(spiro[5.5]undec-2-ylmethoxy)-phenyl]-butyric acid] | 1000 to 10000 |
| CC#C[C@@H](CC(=O)O)c1ccc(OCC2CCCCC23CCCCC3)cc1 (mixture of isomers) [Example 72, (3S)-3-[4-(spiro[5.5]undec-1-ylmethoxy)-phenyl]-hex-4-ynoic acid] | 1000 to 10000 |
| CCC[C@@H](CC(=O)O)c1ccc(OCC2CCCC3(CCCCC3)C2)cc1 (mixture of isomers) [Example 78, (3S)-3-[4-(spiro[5.5]undec-2-ylmethoxy)-phenyl]-hexanoic acid] | 1000 to 10000 |
| COC(CC(=O)O)c1ccc(OCC2CCCC3(CCCCC3)C2)cc1 (racemic) [Example 80, 3-methoxy-3-[4-(spiro[5.5]undec-2-ylmethoxy)-phenyl]-propionic acid] | 1000 to 10000 |

The next lines start with the values.

| EC50 [nM] | SMILES |
| --- | --- |
| 10 to 100 | CC#C[C@@H](CC(=O)O)c1ccc(OCC2CCCC3(C=CCCC3(C)C)C2)cc1 (mixture of isomers) [Example 19, (3S)-3-[4-(11,11-dimethyl-spiro[5.5]undec-7-en-2-ylmethoxy)-phenyl]-hex-4-ynoic acid] |
| 10 to 100 | CC#C[C@@H](CC(=O)O)c1ccc(OCC2CCCC3(CCCCC3)C2)cc1 (mixture of isomers) [Example 28, (3S)-3-[4-(spiro[5.5]undec-2-ylmethoxy)-phenyl]-hex-4-ynoic acid] |
| 100 to 1000 | CC#C[C@@H](CC(=O)O)c1ccc(OCC2CCC3(CCCC3)C2)cc1 (mixture of isomers) [Example 30, (3S)-3-[4-(spiro[4.4]non-2-ylmethoxy)-phenyl]-hex-4-ynoic acid] |
| 10 to 100 | Cn1nnnc1C(CC(=O)O)c1ccc(OCC2CCCC3(CCCCC3)C2)cc1 (racemic) [Example 40, 3-(1-methyl-1H-tetrazol-5-yl)-3-[4-(spiro[5.5]undec-2-ylmethoxy)-phenyl]-propionic acid] |
| 10 to 100 | CCOC(CC(=O)O)c1ccc(OCC2=CC3(CCCCC3)CCC2)cc1 (racemic) [Example 41, 3-ethoxy-3-[4-(spiro[5.5]undec-1-en-2-ylmethoxy)-phenyl]-propionic acid] |
| 1000 to 10000 | O=C(O)CCc1ccc(OCC2CCCC3(CCCCC3)C2)cc1 (racemic) [Example 46, 3-[4-(spiro[5.5]undec-2-ylmethoxy)-phenyl]-propionic acid] |
| 100 to 1000 | CC#CC(CC(=O)O)c1ccc(OCC2CCCC3(CCCCC3)C2)cc1 (racemic) [Example 47, 3-[4-(spiro[5.5]undec-2-ylmethoxy)-phenyl]-hex-4-ynoic acid] |
| 1000 to 10000 | CC1(C)CCCC2(CCCC(COc3ccc(CCC(=O)O)cc3)C2)C1 (racemic) [Example 48, 3-[4-(8,8-dimethyl-spiro[5.5]undec-2-ylmethoxy)-phenyl]-propionic acid] |
| 1000 to 10000 | O=C(O)CCc1ccc(OCC2CCCC3(CCCCCC3)C2)cc1 (racemic) [Example 49, 3-[4-(spiro[5.6]dodec-2-ylmethoxy)-phenyl]-propionic acid] |
| 100 to 1000 | CC1=CCCC(C)C12CCCC(COc1ccc(CCC(=O)O)cc1)C2 (racemic) [Example 50, 3-[4-(7,11-dimethyl-spiro[5.5]undec-7-en-2-ylmethoxy)-phenyl]-propionic acid] |
| 1000 to 10000 | CC1CCCC(C)C12CCCC(COc1ccc(CCC(=O)O)cc1)C2 (racemic) [Example 51, 3-[4-(7,11-dimethyl-spiro[5.5]undec-2-ylmethoxy)-phenyl]-propionic acid] |
| 1000 to 10000 | O=C(O)CCc1ccc(OCC2CCC3(CCCCC3)C2)cc1 (racemic) [Example 52, 3-[4-(spiro[4.5]dec-2-ylmethoxy)-phenyl]-propionic acid] |
| 1000 to 10000 | CC1(C)C=CC2(CCCC(COc3ccc(CCC(=O)O)cc3)C2)CC1 (racemic) [Example 53, 3-[4-(9,9-dimethyl-spiro[5.5]undec-7-en-2-ylmethoxy)-phenyl]-propionic acid] |
| 100 to 1000 | CC1(C)CCC=CC12CCCC(COc1ccc(CCC(=O)O)cc1)C2 (racemic) [Example 55, 3-[4-(11,11-dimethyl-spiro[5.5]undec-7-en-2-ylmethoxy)-phenyl]-propionic acid] |
| 100 to 1000 | CN(C)C(=O)C(CC(=O)O)c1ccc(OCC2CCCC3(CCCCC3)C2)cc1 (racemic) [Example 59, N,N-dimethyl-3-[4-(spiro[5.5]undec-2-ylmethoxy)-phenyl]-succinamic acid] |
| 100 to 1000 | CC#C[C@@H](CC(=O)O)c1ccc(OC2CCCC3(CCCCC3)C2)cc1 (mixture of isomers) [Example 64, (3S)-3-[4-(spiro[5.5]undec-2-yloxy)-phenyl]-hex-4-ynoic acid] |
| 100 to 1000 | O=C(O)CC(c1ccc(OCC2CCCC3(CCCCC3)C2)cc1)c1ncco1 (racemic) [Example 66, 3-oxazol-2-yl-3-[4-(spiro[5.5]undec-2-ylmethoxy)-phenyl]-propionic acid] |
| 100 to 1000 | CC#C[C@@H](CC(=O)O)c1ccc(OCC2CCCC3(CCCCC3)C2O)cc1 (mixture of isomers) [Example 70, (3S)-3-[4-(1-hydroxy-spiro[5.5]undec-2-ylmethoxy)-phenyl]-hex-4-ynoic acid] |
| 100 to 1000 | CCOC(CC(=O)O)c1ccc(OCC2CCCC3(CCCCC3)C2)cc1 (racemic) [Example 75, 3-ethoxy-3-[4-(spiro[5.5]undec-2-ylmethoxy)-phenyl]-propionic acid] |
| 100 to 1000 | C/C=C\[C@@H](CC(=O)O)c1ccc(OCC2CCCC3(CCCCC3)C2)cc1 (mixture of isomers) [Example 77, (Z)-(3R)-3-[4-(spiro[5.5]undec-2-ylmethoxy)-phenyl]-hex-4-enoic acid] |
